The text below walks through data of ChEMBL document CHEMBL3507680, “University of Dundee, Gates Library screen for HepG2 cell viability”.

A short description of this data set: Human HepG2 cell viability assay in 384 well format. Also on record: dose 125 nL, time 70.5 hour; cytotoxicity at 70.5 h: concentration not given beside the values. The class given is toxicity, cell-based. The settings on record: HepG2 cells, read-out: Inhibition.

For `Cc1nc(C)n(CC2CCCCN2CCS(C)(=O)=O)n1` (stereo not given), the cytotoxicity at 70.5 h worked out at 12.7%.

In the case of `CCc1noc(CNc2cc(F)ccc2OCC2CCCO2)n1` (stereo not given), the cytotoxicity at 70.5 h was -6.07%.

Turning to `CCOC(C)c1nc(CN2CCN(c3nccc(C)n3)CC2)cs1` (stereo not given), the cytotoxicity at 70.5 h was -8.29%.

Take `Fc1cc(CNCc2ccc3c(c2)CCO3)ccc1N1CCOCC1`: the cytotoxicity at 70.5 h is -6.5%.

As for `Cc1ccc(-c2nc(CN3CCOC(Cn4cccn4)C3)cs2)o1` (stereo not given), the cytotoxicity at 70.5 h is -13.3%.

Consider `COc1ccc(F)cc1C(C)NC(=O)Nc1nnc(C)s1` (stereo not given), for which the cytotoxicity at 70.5 h was -12.6%.

Consider `CCn1cc(C(=O)NC2CCN(S(C)(=O)=O)CC2)c2ccccc21`, for which the cytotoxicity at 70.5 h was -9.93%.

Regarding `CC(=O)NCCNC(=O)c1cnc(-c2ccccc2)nc1`, the cytotoxicity at 70.5 h was -17.1%.

Turning to `Cc1cc(CNC(=O)C2CCCCN2C(=O)OC(C)(C)C)no1` (stereo not given), the cytotoxicity at 70.5 h is -10.1%.

On to `N#Cc1ccnc(N2CCN(Cc3cccc(F)c3)CC2)c1`, for which the cytotoxicity at 70.5 h was -6.08%.

For `CC(C)c1cc(C(=O)N2CCN(Cc3ccsc3)CC2)n[nH]1`, the cytotoxicity at 70.5 h was -9.01%.

Regarding `Cc1ccc(S(=O)(=O)N2CSCC2C(=O)N(C)C2CC2)cc1Cl` (stereo not given), the cytotoxicity at 70.5 h was -12.2%.

Take `Cc1noc(C)c1CN1CCN(C(=O)Cn2cncn2)CC1`: the cytotoxicity at 70.5 h was -5.67%.

Take `CCOC(=O)NC(CNC(=O)c1ncccn1)CC(C)C` (stereo not given): the cytotoxicity at 70.5 h is -7.23%.

In the case of `CCOc1cccc(NS(=O)(=O)c2cc(C)c(C(=O)O)s2)c1`, the cytotoxicity at 70.5 h stood at 8.89%.

As to `CCN1CCN(c2ccc(F)cc2C(C)NCc2ccncc2)CC1` (stereo not given), the cytotoxicity at 70.5 h is -1.51%.

As to `Cn1cc(N2CCC(NC(=O)c3c(F)cccc3F)C2=O)cn1` (stereo not given), the cytotoxicity at 70.5 h was -2.48%.

For the compound `CCC(CC)c1cc(CNC(=O)N2CCOCC2CC)on1` (stereo not given), the cytotoxicity at 70.5 h was -10.6%.

As to `CN(Cc1ccncc1)C(=O)Nc1cnn(CC2CCCO2)c1` (stereo not given), the cytotoxicity at 70.5 h was -3.42%.

Turning to `CN(C)c1ccc(CCCNC(=O)Nc2ccc(C#N)cc2)cc1`, the cytotoxicity at 70.5 h was 1.4%.

`CC(C)(C)c1nnc(CN2CCN(S(C)(=O)=O)CC2)o1`: the cytotoxicity at 70.5 h was -2.04%.

Consider `Cc1ccc(CNC(=O)N2CCCCC2CCNS(C)(=O)=O)cc1` (stereo not given), for which the cytotoxicity at 70.5 h was -8.15%.

In the case of `NC(=O)C1CCN(C(=O)NCc2ccccc2Cn2cncn2)CC1`, the cytotoxicity at 70.5 h is -3.83%.

With `O=C(NCCNC(=O)N1CCC(c2ccccc2)C1)C1CC1` (stereo not given), the cytotoxicity at 70.5 h is -6.87%.

In the case of `CC(C)CS(=O)(=O)CC(=O)N(C)Cc1ccc(OC(F)F)cc1`, the cytotoxicity at 70.5 h was -3.66%.

Consider `O=C(NCCCNCC1CNc2ccnn2C1)c1ccccc1` (stereo not given), for which the cytotoxicity at 70.5 h is -12%.

With `O=C(c1cccnc1-n1cccn1)N1CCN(CC2CC2)CC1`, the cytotoxicity at 70.5 h was -11%.

`CC(C(=O)NCc1ccnc(Oc2ccc(F)cc2)c1)n1cncn1` (stereo not given): the cytotoxicity at 70.5 h was -9.56%.

`Cc1nc(NC(=O)CN2CCc3c(nc(C(C)C)n3C)C2)sc1C`: the cytotoxicity at 70.5 h was -7.61%.

With `CC(C)c1nc(CN(C)CC2CCN(CCO)CC2)no1`, the cytotoxicity at 70.5 h was -5.69%.

On to `CCOc1cccc(C(C)NC(=O)N2CCC(C(N)=O)CC2)c1` (stereo not given), for which the cytotoxicity at 70.5 h is -8.18%.

For `CC(C)NC(=O)COc1nc(C(C)C)no1`, the cytotoxicity at 70.5 h amounted to 18%.

Consider `O=C(c1ccsc1)N1CCc2ncc(Cn3cncn3)n2CC1`, for which the cytotoxicity at 70.5 h was -14.2%.

On to `C[C@@H]1CN(C(=O)[C@H]2CCCO2)C[C@]12CCN(c1ccsc1)C2=O`, for which the cytotoxicity at 70.5 h was -11.7%.

`CC(=O)N1CCCC2(C1)CN(C(=O)c1ccncc1)CCO2` (stereo not given): the cytotoxicity at 70.5 h was -15.7%.

Regarding `CC(=O)N1CCCC2(C1)CN(C(=O)Cc1ccccc1)CCO2` (stereo not given), the cytotoxicity at 70.5 h was -15.1%.

For `C[C@@H]1CN(C(=O)c2cccc(F)c2)C[C@]12CCN(c1ccsc1)C2=O`, the cytotoxicity at 70.5 h was -16.2%.

With `Cc1nc(NCC2CC2)nc2c1COCC21CCN(S(=O)(=O)C2CC2)C1` (stereo not given), the cytotoxicity at 70.5 h is -15.4%.

With `C[C@H]1CN(C(=O)c2cscn2)C[C@@]12CCN(c1ccsc1)C2=O`, the cytotoxicity at 70.5 h is -14.4%.

Take `COCCC1COC2(CCN(C(=O)c3cccn3C)CC2)C1` (stereo not given): the cytotoxicity at 70.5 h is -14.7%.

For the compound `O=C(c1ccncn1)N1CCC[C@]2(C[C@H](OCC3CC3)CO2)C1`, the cytotoxicity at 70.5 h is -15.2%.

For `CCO[C@@H]1CCN(C(=O)c2ccnnc2)[C@@H]1Cc1cnn(C)c1`, the cytotoxicity at 70.5 h was determined as 3.33%.

Turning to `CO[C@@H]1CCN(C(=O)c2cnoc2C)[C@H]1Cc1ccccc1`, the cytotoxicity at 70.5 h was found to be 2.59%.

`CN1CCN(c2ncnc3c2CCN(C(=O)c2cccn2C)CC3)CC1`: the cytotoxicity at 70.5 h came to 6.05%.

With `O=C(CC1CC1)N1CCC2(CCCN(c3ncccn3)C2)CC1`, the cytotoxicity at 70.5 h is -10.9%.

Consider `COCC(=O)N1CCC2(CC1)CN(c1ncccn1)CCO2`, for which the cytotoxicity at 70.5 h was -10.1%.

As to `CN(C)CCN1CC[C@@H]2[C@@H]1CCN2C(=O)c1cccc(Cl)c1`, the cytotoxicity at 70.5 h was -13.9%.

On to `CN(Cc1cncnc1)[C@H]1CN(Cc2ccco2)[C@@H]2CCCO[C@@H]21`, for which the cytotoxicity at 70.5 h is -9.91%.

For the compound `NC(=O)N1CCC2(CC1)CN(c1ncccn1)CCO2`, the cytotoxicity at 70.5 h was -7.64%.

Take `CCO[C@@H]1CCN(C(=O)N(C)C)[C@@H]1Cc1cnn(C)c1`: the cytotoxicity at 70.5 h is -10.7%.

Turning to `COCCO[C@H]1CCN(C(=O)c2cnccn2)[C@H]1Cc1ccncc1`, the cytotoxicity at 70.5 h is -1.32%.

`COCC1CN(C(=O)Cc2cccs2)Cc2c1cnn2C` (stereo not given): the cytotoxicity at 70.5 h stood at 21.2%.

Turning to `O=C(c1cscn1)N1CC[C@H]2[C@@H]1CCC(=O)N2c1ccccc1`, the cytotoxicity at 70.5 h is 1.24%.

In the case of `CNC(=O)[C@@]12CCO[C@@H]1CCN(S(=O)(=O)c1cccc(F)c1)C2`, the cytotoxicity at 70.5 h was -10.2%.

With `O=C(c1ccnnc1)N1CCc2ncnc(C3CCOC3)c2CC1` (stereo not given), the cytotoxicity at 70.5 h was -9.59%.

As to `O=C(c1ccncc1)N1CCc2ncnc(C3CCOC3)c2CC1` (stereo not given), the cytotoxicity at 70.5 h is -10.1%.

Take `O=C(CC1CCCC1)N1C[C@@H]2CN(Cc3ccoc3)CCO[C@@H]2C1`: the cytotoxicity at 70.5 h was -11.5%.

For the compound `COc1ncnc2c1CCN(CC1CCOC1)CC2` (stereo not given), the cytotoxicity at 70.5 h was -13.6%.

Consider `O=C(N1CCCC1)N1C[C@@H]2CN(Cc3ccoc3)CCO[C@@H]2C1`, for which the cytotoxicity at 70.5 h was -11.3%.

With `Cc1cccc(CN2CC[C@H]3C[C@@H](C)O[C@@H]3C2)n1`, the cytotoxicity at 70.5 h turned out to be 10.9%.

As to `CCOCC1CN(C(=O)c2cscn2)Cc2cnn(CC3CC3)c21` (stereo not given), the cytotoxicity at 70.5 h was determined as 8.12%.

Turning to `COCCN1C2(CCN(Cc3nccs3)C2)c2ccccc2S1(=O)=O` (stereo not given), the cytotoxicity at 70.5 h is -12.7%.

Regarding `CN(C)CC(=O)N1CCC2(CC1)CN(c1ncccn1)CCO2`, the cytotoxicity at 70.5 h is 5.39%.

With `N#Cc1cccc(C(=O)N2CC[C@H]3[C@H]2CCN3CC2CCOCC2)c1`, the cytotoxicity at 70.5 h worked out at 26.3%.

For the compound `O=C(c1cccc(F)c1)N1CC[C@H]2[C@H]1CCN2CC1CCOCC1`, the cytotoxicity at 70.5 h was -6.77%.

For `CCCS(=O)(=O)N1C[C@H](N(C)Cc2ccco2)[C@@H]2OCCC[C@@H]21`, the cytotoxicity at 70.5 h was -6.06%.

In the case of `O=C1NC2(CCN(c3ncccn3)CC2)CC1c1cccnc1` (stereo not given), the cytotoxicity at 70.5 h was -7.58%.

Turning to `c1ccc(OC2COC3(CCN(Cc4ccccn4)CC3)C2)cc1` (stereo not given), the cytotoxicity at 70.5 h was determined as 25.2%.

For the compound `Cn1ccnc1CN1CCC2(CC1)CCN(c1cncnc1)C2=O`, the cytotoxicity at 70.5 h was -3.96%.

In the case of `Cn1cc(C(=O)N2CC[C@@H]3[C@@H]2CCN3Cc2cccc(C#N)c2)cn1`, the cytotoxicity at 70.5 h came out at 0.809%.

As for `Cc1ccccc1N1CC2(CCN(Cc3nccn3C)C2)CC1=O` (stereo not given), the cytotoxicity at 70.5 h is -13.1%.

Consider `COCCN1C(=O)CCC12CCCN(Cc1nccs1)CC2` (stereo not given), for which the cytotoxicity at 70.5 h is -6.77%.

With `Cc1cnc(C(=O)N2CC[C@H]3[C@@H]2CCC(=O)N3c2cccnc2)cn1`, the cytotoxicity at 70.5 h was -14.6%.

With `O=C(C1CC(F)(F)C1)N1C[C@@H]2CN(Cc3ccsc3)CCO[C@@H]2C1`, the cytotoxicity at 70.5 h was -14.8%.

As to `CNC(=O)[C@@]12CCO[C@@H]1CCN(Cc1cccc(C)c1)C2`, the cytotoxicity at 70.5 h was -12.5%.

Turning to `O=C(C1CCOCC1)N1C[C@@H]2CN(Cc3ccsc3)CCO[C@@H]2C1`, the cytotoxicity at 70.5 h was -10.4%.

In the case of `Cc1ncnc2c1CCN(CC1CCOC1)CC2` (stereo not given), the cytotoxicity at 70.5 h was -8.05%.

For `O=C(Cc1cccs1)N1C[C@@H]2CN(Cc3ccoc3)CCO[C@@H]2C1`, the cytotoxicity at 70.5 h is -15.2%.

For the compound `Cc1nc(CN2CCC3(CC2)CCN(C(=O)c2cscn2)C3)cs1`, the cytotoxicity at 70.5 h is -13.7%.

`Cc1ccoc1C(=O)N1CC[C@H]2[C@@H]1CCC(=O)N2c1cccnc1`: the cytotoxicity at 70.5 h is -14.8%.

Turning to `CN(C)[C@@H]1CCN(C(=O)Cc2ccc(F)cc2)[C@H]1Cc1ccncc1`, the cytotoxicity at 70.5 h was -15.9%.

For the compound `O=C(c1cccnc1)N1CCn2cc(CN3CCCC3)nc2C1`, the cytotoxicity at 70.5 h was -6.71%.

`Cc1noc(C)c1CN1CCC[C@]2(C[C@@H](Oc3ccccn3)CO2)C1`: the cytotoxicity at 70.5 h was -0.591%.

As for `CN(Cc1ccco1)[C@@H]1CN(CC2CCOCC2)C[C@@H]2CCCO[C@@H]21`, the cytotoxicity at 70.5 h is 4.38%.

In the case of `CCOCC1CN(C(=O)Cc2ccccn2)Cc2c1cnn2C` (stereo not given), the cytotoxicity at 70.5 h was -7.19%.

On to `Cc1cnc(N2CC[C@@H]3O[C@@H](COCc4ccccn4)CC[C@@H]32)nc1`, for which the cytotoxicity at 70.5 h is -8.03%.

Take `c1ccc(O[C@@H]2CO[C@@]3(CCCN(CC4CCOCC4)C3)C2)nc1`: the cytotoxicity at 70.5 h is -8.71%.

On to `O=C1[C@@H]2CCN(Cc3ccccn3)C[C@@H]2OCCN1c1ccccc1`, for which the cytotoxicity at 70.5 h was -4.44%.

Regarding `c1ccc(O[C@H]2CO[C@@]3(CCCN(Cc4nccs4)C3)C2)nc1`, the cytotoxicity at 70.5 h came to 42.1%.

Consider `O=C1CC2(CCN(Cc3cccnc3)C2)CN1c1cncnc1` (stereo not given), for which the cytotoxicity at 70.5 h is -2.69%.

In the case of `O=C(NCc1cccnc1)[C@@H]1CC[C@@H]2[C@@H](CCN2c2ncc(F)cn2)O1`, the cytotoxicity at 70.5 h is -3.65%.

On to `CN(Cc1cccnc1)C1CC2(CCN(Cc3cccnc3)CC2)C1`, for which the cytotoxicity at 70.5 h was -13.8%.

As for `Cc1noc(C)c1CN1CCN(Cc2cccnc2)c2ncccc2C1`, the cytotoxicity at 70.5 h was -6.13%.

Regarding `COCCN1CCN(Cc2ccncc2)c2ncccc2C1`, the cytotoxicity at 70.5 h is -11%.

`CN(Cc1ccco1)[C@@H]1CN(Cc2nccn2C)[C@@H]2CCCO[C@H]12`: the cytotoxicity at 70.5 h was -8.73%.
